# Test results: article PMC10788915, “Fragment Merging, Growing, and Linking Identify New Trypanothione Reductase Inhibitors for Leishmaniasis” (Journal of Medicinal Chemistry, 2024)
# How the values were obtained:
# [1] = system: L. infantum axenic amastigotes; assay: In vitro inhibition of axenic amastigote growth (MTT); type: cell-based, Leishmania infantum; conditions: Leishmania infantum, 72 h, read-out: axenic amastigote EC50 ± SE (95% CI)
# Experimental: Axenic amastigote growth inhibition was evaluated using L. infantum strain (MHOM/TN/80/IPT1, WHO international reference strain). Axenic amastigote cultures were obtained as described previously with modifications.[45] Promastigotes were grown in Schneider’s Drosophila medium (SIGMA) containing 10% heat-inactivated fetal calf serum (FCS)(GIBCO-BRL) and 2% gentamicin (50 mg/L)(Sigma) in 25 cm^2 flasks at 22 °C. After 4–5 days, the parasites were adjusted to 1 × 10^6 parasites/mL in axenic medium MAA/20 consisting of modified medium 199 (Gibco BRL) with Hanks’ salts supplemented with 0.5% tryptic soy broth (Sigma), 0.01 mM bathocuproine disulfonic acid, 3 mM L-cysteine, 15 mM D-glucose, 5 mM L-glutamine, 4 mM NaHCO3, 0.023 mM bovine hemin, and 25 mM HEPES to a final pH of 6.5 and supplemented with 20% pretested FCS, and axenic amastigotes were obtained by shifting the incubation conditions: 198 μL of suspension was seeded in triplicate in 96-well flat bottom microplates and incubated at 37 °C, 5% CO2 for 48 h in order to allow the axenization. The amastigote cells were visualized under the light microscope to confirm transformation. Then, 2 μL of the selected compounds with varying concentrations were added: 100, 50, 25, 12.5, 6.25, 3.12, 1.56, 0.8, 0.4, 0.2, 0.1, 0.05 μM. […] Each experiment was conducted in triplicate for each drug concentration, and three independent experiments were performed. To estimate the 50% inhibitory concentration (IC50), the (3-[4.5-dimethylthiazol-2-yl]-2.5-diphenyltetrazolium bromide) (MTT) micromethod was used throughout the experiments with modification. After 72 h of incubation, 30 μL of MTT was added to each well, and the plates were further incubated for 3 h. The absorbance at 550 nm was measured with a 96-well scanner. Antileishmanial activity was expressed as the percentage of inhibition in the number of live parasites compared to that in the control (nontreated parasites). % inhibition was calculated as follows: % growth inhibition = [(absorb cell with drug × 100)/absorb cell control] – 100. Results were analyzed by GraphPad Prism 5.0, dose–response curves were obtained and IC50 deduced (GraphPad Software Inc., San Diego, USA).
# [2] = Cytotoxicity assay on human THP-1-derived macrophages (MTT); type: cell-based; conditions: human, THP-1 cells differentiated into macrophages with PMA, 72 h, MTT; read-out: human THP-1-derived macrophage CC50 ± SE (95% CI)
# Experimental: (§1) To assess the cytotoxicity of compounds on mammalian macrophages, we tested all the compounds against both human leukemia monocyte cell line (THP-1 cells, ATCC) differentiated into macrophages by treatment with 40 ng/mL of phorbol myristate acetate (PMA; Sigma) for 48 h and peritoneal exudate macrophages harvested from Balb/c mice. […] Cell viability was evaluated using the MTT assay, and the concentration of the compound that produced a 50% reduction of cell viability in treated culture cells with respect to untreated ones (CC50) was determined by GraphPad Prism 5.0 (GraphPad Software Inc., San Diego, USA). […] The selectivity index for each compound was calculated as the ratio of cytotoxicity (CC50) in macrophages cells to activity (IC50) against Leishmania axenic amastigotes. The experiments were performed in triplicate, and two independent experiments were conducted.
# [3] = system: human THP-1-derived macrophages; assay: as above; type: cell-based
# Experimental: as §1
# [4] = Cytotoxicity assay on primary murine macrophages (MTT); type: cell-based, Balb/c mice; conditions: Balb/c, mouse, primary peritoneal exudate macrophages, read-out: primary murine macrophage CC50 ± SE (95% CI)
# Experimental: as §1
# [5] = system: L. infantum intramacrophage amastigotes; assay: Ex vivo inhibition of intramacrophage amastigote growth; type: cell-based, Leishmania infantum; conditions: Leishmania infantum, Macrophage, in Mus musculus, 72 h, murine macrophages infected with L. infantum amastigotes, 72 h, read-out: intramacrophage amastigote EC50 ± SE (95% CI)
# Experimental: Balb/c murine macrophages were used to perform ex vivo assay since the parasites infect them more effectively. Macrophages (5 × 10^5/well) were placed on glass coverslips within a 24-well culture plate and incubated with complete RPMI in a 5% CO2 incubator at 37 °C for 4 h to achieve cell adhesion. After this time, L. infantum amastigotes from spleens of previously infected hamsters were added onto the macrophages adhering to the coverslips at the ratio of 10:1 (parasites/macrophages). After 24 h of infection, the noninternalized amastigotes were removed by washes with RPMI. The infected macrophages were incubated with complete RPMI medium (control) or medium containing different concentrations of compounds in a 5% CO2 incubator at 37 °C for 72 h. Then, the coverslips were fixed with methanol, stained with Giemsa 10%, and analyzed by optical microscopy. The percentage of the infected macrophages and the number of amastigotes per infected macrophage were determined by random counting of 100 cells in each coverslip. Infection was judged to be adequate if more than 70% of the macrophages in the untreated control were infected. Activity for each compound was expressed as percentage of parasite burden reduction = infectivity index of treated cells/infectivity index of untreated cells. The infectivity index was calculated as follows: number of infected macrophages × mean number of amastigotes per macrophage / total number of macrophages. Nonlinear regression analysis (Graph-Pad Software Inc., San Diego, USA) was used for curve fitting and calculation of 50% inhibitory concentrations (IC50). The experiments were performed in triplicate, and two independent experiments were conducted.
# [6] = system: L. infantum axenic amastigotes; conditions: stated for the control (Euroclone) in the axenic amastigote method; read-out: IC50 of the control drug; cited from earlier work
structure (smiles),measurement,setting,value
"C[C@@H]1[C@H](O)[C@@H](C)/C=C/C=C/C=C/C=C/C=C/C=C/C=C/[C@H](O[C@@H]2O[C@H](C)[C@@H](O)[C@H](N)[C@@H]2O)C[C@@H]2O[C@](O)(C[C@@H](O)C[C@@H](O)[C@H](O)CC[C@@H](O)C[C@@H](O)CC(=O)O[C@H]1C)C[C@H](O)[C@H]2C(=O)O [AmpB, Amphotericin B, reference compound]",EC50,[1],800 ± 400 nM
same,CC50 at 72 h,[2],21100 ± 3000 nM
same,SI = human THP-1-derived macrophage CC50/axenic amastigote EC50,[3],26.4
same,CC50 at 72 h,[4],16700 ± 2050 nM
same,EC50,[5],540 ± 300 nM
same,IC50,[6],500 nM
